# Measurements published in paper PMC3655043, “Functional expression of a blood tolerant laccase in Pichia pastoris” (BMC Biotechnology, 2013).
# Molecular target: T1, ChU-B laccase (blood-tolerant ChU-B mutant of PM1 laccase) (basidiomycete PM1, UniProt Q12571, F417I/F475E, form not given)
# T1 construct: directed-evolution variant; alpha-factor evolved prepro-leader processed, extra N-terminal ETEAEF kept (ETEAEFSIGP...); secreted by Pichia pastoris X-33; 53,939 Da calculated, 62,541 Da glycosylated
# T1 sequence (Q12571 entry or part of it F417I/F475E, form open): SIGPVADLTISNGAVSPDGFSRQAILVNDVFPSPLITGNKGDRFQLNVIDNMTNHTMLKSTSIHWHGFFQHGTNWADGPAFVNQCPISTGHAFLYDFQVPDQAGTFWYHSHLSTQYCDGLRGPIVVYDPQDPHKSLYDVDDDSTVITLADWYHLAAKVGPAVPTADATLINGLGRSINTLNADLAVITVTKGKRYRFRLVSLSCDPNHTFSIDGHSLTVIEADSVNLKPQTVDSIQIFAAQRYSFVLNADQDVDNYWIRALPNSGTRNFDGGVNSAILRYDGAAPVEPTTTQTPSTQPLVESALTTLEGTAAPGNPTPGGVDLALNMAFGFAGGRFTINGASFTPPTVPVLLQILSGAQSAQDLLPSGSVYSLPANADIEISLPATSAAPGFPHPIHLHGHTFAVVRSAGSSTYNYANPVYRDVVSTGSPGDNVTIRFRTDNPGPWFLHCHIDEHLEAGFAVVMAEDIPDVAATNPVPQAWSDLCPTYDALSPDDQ
# Assay: steady-state kinetics, absorbance […] nm
# Assay type: biochemical
# Conditions: pH 5.0; enzyme from P. pastoris; read-out: ChU-B fromP. pastoris / Km
smiles,measurement,value
COc1cccc(OC)c1O [DMP],Km,1910 ± 50 µM
